Experimental findings from US20250129067A1 (Progentos Therapeutics, Inc., priority 2021, published 2025) are described below.

As usually defined, the IC50 is the concentration that inhibits the measured activity by half.

Series [1] concerns Oligodendrocyte progenitor cells (OPCs). Put plainly: In vitro OPC differentiation assay, GPR17 expression (immunocytochemistry). Particulars: 72 hours, fold change over vehicle; for GPR17 Fold Induction (Over Vehicle; 3 μM): 3 μM (10× concentration, final 0.3 μM).
A further series deals with MBP (myelin) in brain. Put plainly: Remyelination in chronically demyelinated mice (cuprizone model), MBP staining. Particulars: for In vivo MBP Increases: MBP staining at day 10 after the first dose, blinded score. It is filed as in vivo, C57BL/6 mice. As to the method:
The ability of newly constructed compounds (described in above Examples) to induce remyelination after demyelination in adult mice was tested using a cuprizone model. Cuprizone administration specifically induces the loss of myelin and oligodendrocytes. Mice were maintained on cuprizone chow to induce demyelination, the cuprizone was discontinues, and the compounds were administered. The animals were sacrificed 10 days after compound administration was initiated and their brains sections and stained for MBP, an important component of myelin.
The chow was stored at 4° C. until use.
Mice were allowed ad libitum access to cuprizone chow. […] The cuprizone diet was discontinued 24 hours before compound treatment was initiated.
To assess oligodendrocyte differentiation, the mice were euthanized and assessed at day 3 after the first dose. To assess MBP expression, the animals were euthanized and assessed at day 10 after the first dose.
For some compounds, MBP intensity, an intensity weighted positive pixel count, was measured using an algorithm developed in Visiopharm Software.

The nature of a further series: In vivo half-life. Particulars: comparison in words.
In another series the target is PDGFRα (Homo sapiens (Human), UniProt P16234). The series is described as follows: PDGFRα kinase enzyme assay (Promega PDGFRα Kinase Enzyme System, ADP-Glo). It is filed as biochemical. Particulars: 150 uM ATP. In outline:
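Purified PDGFRα protein (20 ng) reacted with test compound per the Promega kinase system protocol. ADP formed was measured by ADP-Glo luminescence against a standard curve, giving IC50.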

The test system of series [2] is Oligodendrocyte progenitor cells (OPCs). The series is described as follows: In vitro OPC differentiation assay, MBP expression (immunocytochemistry). The note with it: 72 hours of treatment; fold change over vehicle.
Method: Cortices from postnatal day (P) 1-3 rats were dissected and collected into ice cold Hank's Balanced Salt Solution (HBSS). […] Briefly, the cortical cell suspension was centrifuged and washed with buffer (0.5% BSA in PBS) and labeled with Anti-A2B5 MicroBeads (10 μL beads per 1×10^7 cells) for 15 minutes at 4° C. Following the incubation, cells were washed once with BSA buffer to remove unlabeled beads. A2B^5 positive cells were eluted on the column using the AutoMACS® (Miltenyi, as per manufacturer's protocol using “possel-s” program). Eluted cells were further washed twice with OPC growth media. Cell count was performed using Countess III cell counter (ThermoFisher; AMQAX2000) and cells were plated.
A2B5+ OPCs were plated in poly-d-lysine (PDL) coated T75 flask at a density of ˜3 million cells per flask. […] TrypLE was normalized by adding 10 mL growth media and cells were centrifuged at 1400 rpm for 10 minutes. […] The plates were allowed to sit at room temperature for 15 minutes to ensure proper dispersion of cells in a well. The plates were then transferred to the incubator (37° C.; 5% CO2).
Cells were then incubated for 72 hours at 37° C., 5% CO2 before immunostaining for MBP marker expression.
Following 72 hours of treatment, cells were fixed with 4% paraformaldehyde for 15 minutes then washed three times in DPBS. Prior to staining, cells were blocked for 15 minutes in 10% normal goat serum containing 1% BSA and 0.1% Triton X-100 in DPBS. Primary antibody (MBP @ 1:2000; Abcam AB7349) was applied to cells overnight at 4° C. in incubation solution containing 1% normal goat serum, 1% BSA, and 0.1% Triton X-100 in DPBS.
The number of differentiated MBP+ cells was normalized to the total nuclei count and percent differentiated MBP+ cells were reported.
Series [3] relates to GPR17+ cells (newly differentiated oligodendrocytes). Put plainly: In vivo OPC differentiation, GPR17+ cells in brain.
[4] abbreviates: 11-point dose response, 10,000 nM to 0.169 nM, BLQ = below limit of quantitation, read-out: IC50 Values on PDGFRα Kinase Inhibition, IC50.
[5] abbreviates: Mus musculus, po, 24 h, read-out: GPR17 Fold Induction (Over Vehicle).

SMILES strings stand for the structures. Read-outs that look alike come from different tables or passages of the source.

Sequence of PDGFRα (P16234 24-1089): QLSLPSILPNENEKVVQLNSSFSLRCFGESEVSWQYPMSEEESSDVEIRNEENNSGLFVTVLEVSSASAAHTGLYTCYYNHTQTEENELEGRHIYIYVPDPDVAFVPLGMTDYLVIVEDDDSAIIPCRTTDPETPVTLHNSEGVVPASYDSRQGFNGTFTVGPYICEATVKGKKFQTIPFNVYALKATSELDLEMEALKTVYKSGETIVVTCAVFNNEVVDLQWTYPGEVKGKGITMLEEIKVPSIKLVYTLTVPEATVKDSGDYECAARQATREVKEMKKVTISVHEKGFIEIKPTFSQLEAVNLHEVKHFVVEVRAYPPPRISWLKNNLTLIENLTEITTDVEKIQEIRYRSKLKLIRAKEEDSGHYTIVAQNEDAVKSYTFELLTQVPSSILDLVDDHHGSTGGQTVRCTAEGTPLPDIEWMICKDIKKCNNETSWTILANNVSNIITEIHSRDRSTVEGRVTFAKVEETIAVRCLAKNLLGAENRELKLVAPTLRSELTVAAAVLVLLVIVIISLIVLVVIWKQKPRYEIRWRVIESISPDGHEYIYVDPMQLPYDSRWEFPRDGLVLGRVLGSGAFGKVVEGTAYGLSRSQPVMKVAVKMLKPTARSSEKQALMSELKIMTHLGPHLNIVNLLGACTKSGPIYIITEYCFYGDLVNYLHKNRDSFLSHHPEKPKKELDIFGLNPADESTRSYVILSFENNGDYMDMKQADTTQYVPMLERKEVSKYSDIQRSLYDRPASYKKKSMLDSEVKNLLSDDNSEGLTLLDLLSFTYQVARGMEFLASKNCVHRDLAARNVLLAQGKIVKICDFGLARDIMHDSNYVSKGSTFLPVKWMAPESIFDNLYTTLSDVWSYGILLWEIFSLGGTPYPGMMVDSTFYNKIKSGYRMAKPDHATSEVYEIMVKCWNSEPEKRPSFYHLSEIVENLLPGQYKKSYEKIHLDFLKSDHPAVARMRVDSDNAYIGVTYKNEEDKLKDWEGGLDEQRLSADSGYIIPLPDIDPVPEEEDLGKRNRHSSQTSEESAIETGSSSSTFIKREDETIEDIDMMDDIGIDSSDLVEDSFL

As for `Cn1cc(-c2ccc3c(N4CCN(c5ncc(Cc6ccccc6)cn5)CC4)cnn3c2)cn1` [Compound 6, 3-[4-(5-benzylpyrimidin-2-yl)piperazin-1-yl]-6-(1-methyl-1H-pyrazol-4-yl)pyrazolo[1,5-a]pyridine], the “GPR17 Fold Induction (Over Vehicle; 3 μM)” value in series [1] was 4.47. In series [1] (5 μM (10× concentration, final 0.5 μM)), the “GPR17 Fold Induction (Over Vehicle; 5 μM)” value is on record as 4.07. In addition, the “In vivo MBP Increases” value in the series with MBP (myelin) in brain is recorded as “+++++ (5 representing the level of myelination observed in naïve, healthy animals that had not undergone demyelination)”. The “MBP expression within the different regions of the brain” value with MBP (myelin) in brain (single dose, versus vehicle control) is reported as “significant increase in MBP expression”. For the same compound, the Half-life result in “In vivo half-life” is on record as “longer half-life”. Moreover, the IC50 at PDGFRα (20 ng purified PDGFRα, Poly (Glu4Tyr1) substrate, two hours, 11-point dose response, read-out: IC50 Values on PDGFRα Kinase Inhibition) is less than 1000 nM; on PDGFRα (setting [4]) it was 407 nM. The “MBP Fold Induction (Over vehicle)” value in series [2] worked out at 2.95. Also, the fold induction at 150 mg/kg in series [3] (setting [5]) amounted to 18.7.

With `Cn1cc(-c2cc3c(N4CCN(c5ncc([C@@](C)(N)c6ccc(F)cc6)cn5)CC4)ncnn3c2)cn1` [Avapritinib, avapritinib, reference compound], in the series on MBP (myelin) in brain, the “In vivo MBP Increases” value was “++++ (given a score from 1 to 5)”.

`CN1CCC[C@@H]1CCO[C@](C)(c1ccccc1)c1ccc(Cl)cc1` [Clemastine, clemastine, reference compound]: the “In vivo MBP Increases” value with MBP (myelin) in brain is listed as “+ (given a score from 1 to 5)”. Moreover, the “In vivo GPR17+ cells, GPR17 Fold Induction (Over Vehicle)” value in series [3] (adult female C57BL/6 mice, PO or IP, treatment period 1-3 days, entire brain, fold change over vehicle treated animals) was found to be 1.55.

For `CC(C)(C)OC(=O)N1CCN(c2cnn3cc(-c4cnn(CCCN5CCOCC5)c4)ccc23)CC1` [Compound 233, tert-butyl 4-(6-(1-(3-morpholinopropyl)-1H-pyrazol-4-yl)pyrazolo[1,5-a]pyridin-3-yl)piperazine-1-carboxylate], the “GPR17 Fold Induction (Over Vehicle; 3 μM)” value in series [1] turned out to be 9.27. Besides, on PDGFRα (setting [4]), the IC50 worked out at 692 nM. Moreover, the “MBP Fold Induction (Over vehicle)” value in series [2] turned out to be 46.15. Further, in series [3] (setting [5]), the fold induction at 10 mg/kg is 2.16.

As for `C[C@@H](OC(=O)N1CCN(c2cnn3cc(-c4cnn(C)c4)ccc23)CC1)c1ccc2ccccc2c1` [Compound 312, (1R)-1-(2-naphthyl)ethyl 4-[6-(1-methyl-1H-pyrazol-4-yl)pyrazolo[1,5-a]pyridin-3-yl]piperazine-1-carboxylate], the “GPR17 Fold Induction (Over Vehicle; 3 μM)” value in series [1] amounted to 9.00. Besides, the IC50 on PDGFRα (setting [4]) was found to be 145 nM. The “MBP Fold Induction (Over vehicle)” value in series [2] came to 18.49. For the same compound, the fold induction at 3 mg/kg in series [3] (setting [5]) was determined as 1.53.

`CCC(CC)C(O)c1cnc(N2CCN(c3cnn4cc(-c5cnn(C)c5)ccc34)CC2)nc1` (stereo not drawn) [Compound 177, 2-ethyl-1-(2-(4-(6-(1-methyl-1H-pyrazol-4-yl)pyrazolo[1,5-a]pyridin-3-yl)piperazin-1-yl)pyrimidin-5-yl)butan-1-ol]: in series [1], the “GPR17 Fold Induction (Over Vehicle; 3 μM)” value is 10.12. In addition, the IC50 on PDGFRα (setting [4]) amounted to 75.3 nM. Moreover, the “MBP Fold Induction (Over vehicle)” value in series [2] is 32.85. Further, the fold induction at 3 mg/kg in series [3] (setting [5]) came out at 2.37.

In the case of `Cn1cc(-c2ccc3c(N4CCN(c5ncc(Cc6cccnc6)cn5)CC4)cnn3c2)cn1` [Compound 251, 6-(1-methyl-1H-pyrazol-4-yl)-3-{4-[5-(pyridin-3-ylmethyl)pyrimidin-2-yl]piperazin-1-yl}pyrazolo[1,5-a]pyridine], the “GPR17 Fold Induction (Over Vehicle; 3 μM)” value in series [1] is recorded as 4.97. For the same compound, the IC50 on PDGFRα (setting [4]) was determined as 1160 nM. The “MBP Fold Induction (Over vehicle)” value in series [2] stood at 9.20. For the same compound, the fold induction at 3 mg/kg in series [3] (setting [5]) came to 1.22.

As for `CC(C)n1cc(-c2ccc3c(N4CCN(C(=O)OC(C)(C)C)CC4)cnn3c2)cn1` [Compound 234, tert-butyl 4-(6-(1-isopropyl-1H-pyrazol-4-yl)pyrazolo[1,5-a]pyridin-3-yl)piperazine-1-carboxylate], the “GPR17 Fold Induction (Over Vehicle; 3 μM)” value in series [1] turned out to be 7.16. The IC50 at PDGFRα (setting [4]) amounted to 311 nM. The “MBP Fold Induction (Over vehicle)” value in series [2] came out at 11.56. Besides, in series [3] (setting [5]), the fold induction at 3 mg/kg was determined as 1.15.

On to `Cn1cc(-c2ccc3c(N4CCN(C(=O)N5CCC[C@@H]5c5ccc(Cl)cc5)CC4)cnn3c2)cn1` [Compound 277, 3-(4-{[(2R)-2-(4-chlorophenyl)pyrrolidin-1-yl]carbonyl}piperazin-1-yl)-6-(1-methyl-1H-pyrazol-4-yl)pyrazolo[1,5-a]pyridine], for which the “GPR17 Fold Induction (Over Vehicle; 3 μM)” value in series [1] was determined as 5.36. Further, the IC50 on PDGFRα (setting [4]) came out at 208 nM. For the same compound, the “MBP Fold Induction (Over vehicle)” value in series [2] was found to be 8.37. In addition, in series [3] (setting [5]), the fold induction at 3 mg/kg came to 0.96.
